Reference: the supplement of paper PMC10331698
± gives the standard deviation of the averaged measurements.

Assays:
Assay in all cases: level (log10 ratio to DMSO vehicle control); higher = higher biomarker level / cell amount than vehicle control
Details in all cases: in DMSO
[1] = compound: OCC(F)(F)C(F)(F)C(F)(F)C(F)(F)C(F)(F)C(F)F [1H,1H,7H-Dodecafluoro-1-heptanol]
Procedure: (§1)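 BioMAP Diversity Plus panel of 12 human primary cell co-culture systems (3C, 4H, LPS, SAg, BT, BF4T, BE3C, CASM3C, HDF3CGF, KF3CT, MyoF, Mphg). Compounds were added 1 h before stimulation and left for 24 h (MyoF 48 h; BT 72 h for soluble read-outs or 6 d for IgG). Biomarkers were read by ELISA, cytotoxicity by SRB, PBMC viability and proliferation by Alamar Blue. Each well value was divided by the mean of 8 DMSO control wells on the same plate and log10 transformed; duplicate blinded samples were tested at 4 concentrations.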

[2] = compound: O=C(O)C(F)(F)C(F)(F)C(F)(F)C(F)(F)C(F)(F)C(F)(F)C(F)(F)C(F)(F)Cl [9-Chloro-perfluorononanoic acid]
Procedure: as §1

Perfluorooctanamidine = compound: N=C(N)C(F)(F)C(F)(F)C(F)(F)C(F)(F)C(F)(F)C(F)(F)C(F)(F)F [Perfluorooctanamidine]
Procedure: as §1

[3] = compound: CC(C)(C)C(=O)CC(=O)C(F)(F)C(F)(F)C(F)(F)F [(Heptafluorobutanoyl)pivaloylmethane]
Procedure: as §1

Perfluorooctanamide = compound: NC(=O)C(F)(F)C(F)(F)C(F)(F)C(F)(F)C(F)(F)C(F)(F)C(F)(F)F [Perfluorooctanamide]
Procedure: as §1

1H,1H-Heptafluorobutanol = compound: OCC(F)(F)C(F)(F)C(F)(F)F [1H,1H-Heptafluorobutanol]
Procedure: as §1

[4] = compound: O=P(O)(O)CCC(F)(F)C(F)(F)C(F)(F)C(F)(F)C(F)(F)C(F)(F)C(F)(F)C(F)(F)F [((Perfluorooctyl)ethyl)phosphonic acid]
Procedure: as §1

Test System | level (log10) ([1]; 6700 nM) | level (log10) ([1]; 20000 nM) | level (log10) ([1]; 60000 nM) | level (log10) ([2]; 6700 nM) | level (log10) ([2]; 20000 nM) | level (log10) (Perfluorooctanamidine; 6700 nM) | level (log10) (Perfluorooctanamidine; 20000 nM) | level (log10) (Perfluorooctanamidine; 60000 nM) | level (log10) ([3]; 6700 nM) | level (log10) ([3]; 20000 nM) | level (log10) ([3]; 60000 nM) | level (log10) (Perfluorooctanamide; 6700 nM) | level (log10) (Perfluorooctanamide; 20000 nM) | level (log10) (Perfluorooctanamide; 60000 nM) | level (log10) (1H,1H-Heptafluorobutanol; 6700 nM) | level (log10) (1H,1H-Heptafluorobutanol; 20000 nM) | level (log10) (1H,1H-Heptafluorobutanol; 60000 nM) | level (log10) ([4]; 6700 nM) | level (log10) ([4]; 20000 nM) | level (log10) ([4]; 60000 nM)
3C:CXCL9/MIG | 0.0065 ± 0.0078 | -0.0005 ± 0.015 | -0.0015 ± 0.0021 | -0.005 ± 0.0042 | 0.0065 ± 0.0078 | 0.007 ± 0.0071 | -0.0165 ± 0.0035 | 0.005 | -0.007 ± 0.016 | -0.0045 ± 0.013 | 0.004 ± 0.0071 | 0.01 ± 0.0042 | 0.008 ± 0.014 | 0.031 ± 0.0014 | 0.001 ± 0.021 | 0.002 ± 0.014 | 0 ± 0.017 | 0.006 ± 0.0057 | -0.0045 ± 0.005 | 0.0185 ± 0.0064
BF4T:CD54/ICAM-1 | 0.0045 ± 0.0064 | 0.004 ± 0.014 | 0.006 ± 0.013 | -0.0085 ± 0.0021 | -0.0355 ± 0.0064 | -0.001 ± 0.0085 | -0.006 ± 0.017 | 0.039 | -0.006 ± 0.0014 | -0.0145 ± 0.005 | -0.0155 ± 0.015 | -0.0175 ± 0.0064 | -0.006 ± 0.014 | -0.015 ± 0.0028 | 0.0035 ± 0.0021 | 0.008 ± 0.0085 | 0.001 ± 0.013 | 0.0035 ± 0.029 | 0.001 ± 0.031 | -0.0035 ± 0.046
BF4T:CD106/VCAM-1 | -0.0065 ± 0.039 | -0.0035 ± 0.013 | 0.011 ± 0.031 | -0.0485 ± 0.005 | -0.141 ± 0.011 | 0.0325 ± 0.0092 | 0.018 ± 0.052 | 0.021 | 0.0075 ± 0.015 | -0.002 ± 0.0042 | -0.005 | -0.009 ± 0.02 | 0 ± 0.0099 | -0.0005 ± 0.03 | -0.0155 ± 0.0021 | -0.0105 ± 0.019 | -0.005 ± 0.0071 | -0.009 ± 0.018 | 0.0185 ± 0.019 | 0.0205 ± 0.052
BE3C:EGFR | 0.0125 ± 0.0092 | -0.0005 ± 0.0092 | 0.0095 ± 0.0021 | -0.004 ± 0.0014 | -0.101 ± 0.015 | -0.009 ± 0.0014 | -0.013 ± 0.014 | -0.022 | 0.0095 ± 0.016 | -0.0055 ± 0.023 | -0.0175 ± 0.00071 | 0.012 ± 0.011 | -0.002 ± 0.0085 | 0.035 ± 0.016 | 0.009 ± 0.014 | 0.0135 ± 0.022 | 0.016 ± 0.027 | -0.025 ± 0.014 | -0.0355 ± 0.025 | -0.0345 ± 0.033
4H:VEGFR2 | -0.011 ± 0.044 | 0.0075 ± 0.061 | 0.014 ± 0.03 | -0.108 ± 0.011 | -0.0395 ± 0.013 | -0.0135 ± 0.023 | -0.023 ± 0.025 | 0.064 | 0 ± 0.011 | -0.012 ± 0.0071 | -0.0105 ± 0.032 | -0.025 ± 0.0099 | -0.0405 ± 0.037 | -0.021 ± 0.025 | 0.0085 ± 0.026 | -0.0015 ± 0.0035 | 0.003 ± 0.035 | -0.016 ± 0.033 | -0.024 ± 0.035 | 0.007 ± 0.0057
4H:CCL26/Eotaxin-3 | -0.0075 ± 0.0078 | -0.023 ± 0.0042 | -0.0155 ± 0.022 | -0.04 ± 0.011 | 0.016 ± 0.037 | -0.006 ± 0.0042 | -0.033 ± 0.0042 | -0.118 | -0.002 ± 0.0014 | 0.004 ± 0.0057 | 0.0145 ± 0.016 | 0.033 ± 0.055 | 0.021 ± 0.031 | 0.0275 ± 0.04 | 0.017 ± 0.03 | 0.01 ± 0.014 | 0.0255 ± 0.021 | -0.011 ± 0.0085 | -0.025 ± 0.0057 | -0.108 ± 0.033
BF4T:Keratin 8/18 | -0.0025 ± 0.0021 | -0.0055 ± 0.012 | 0.004 ± 0.014 | -0.004 ± 0.0057 | -0.0105 ± 0.0035 | -0.012 ± 0.0057 | -0.0165 ± 0.016 | 0.039 | -0.007 ± 0.061 | -0.024 ± 0.041 | 0.0145 ± 0.0035 | -0.023 ± 0.018 | 0.002 ± 0.021 | -0.0075 ± 0.023 | -0.036 ± 0.065 | -0.025 ± 0.037 | -0.019 ± 0.037 | -0.016 ± 0.017 | -0.0195 ± 0.005 | -0.0155 ± 0.042
BT:sIL-17A | -0.182 ± 0.044 | -0.091 ± 0.14 | -0.174 ± 0.16 | 0.015 ± 0.054 | 0.008 ± 0.047 | 0.1795 ± 0.00071 | -0.145 ± 0.044 | -0.141 | -0.0075 ± 0.013 | -0.0315 ± 0.053 | -0.194 ± 0.18 | 0.122 ± 0.016 | 0.0965 ± 0.0035 | 0.034 ± 0.26 | -0.145 ± 0.19 | -0.166 ± 0.005 | -0.0935 ± 0.25 | 0.0985 ± 0.00071 | 0.132 ± 0.044 | 0.0985 ± 0.083
LPS:CCL2/MCP-1 | 0.002 ± 0.0014 | -0.0125 ± 0.0078 | -0.0005 ± 0.018 | 0.005 ± 0.038 | 0.006 ± 0.0028 | -0.0005 ± 0.021 | -0.003 ± 0.0028 | -0.023 | -0.01 ± 0.0014 | -0.0055 ± 0.018 | 0.001 ± 0.038 | -0.0295 ± 0.015 | 0.001 ± 0.0099 | -0.0765 ± 0.012 | -0.0125 ± 0.018 | -0.0055 ± 0.0035 | -0.001 ± 0.017 | -0.0075 ± 0.005 | -0.0255 ± 0.0092 | -0.046 ± 0.016
SAg:CXCL9/MIG | 0.006 ± 0.0071 | -0.006 ± 0.0071 | 0.01 ± 0.0099 | -0.001 ± 0.013 | -0.0025 ± 0.0021 | 0 ± 0.0085 | 0.0085 ± 0.0021 | 0.007 | -0.002 ± 0.011 | 0.0015 ± 0.00071 | 0.002 ± 0.016 | -0.0075 ± 0.005 | -0.0025 ± 0.012 | 0.009 ± 0.0057 | -0.003 ± 0.031 | -0.001 ± 0.018 | 0.018 ± 0.014 | 0.001 ± 0.0028 | 0.006 ± 0.0085 | -0.0115 ± 0.023
3C:SRB | -0.005 ± 0.0071 | -0.006 ± 0.0071 | -0.0025 ± 0.00071 | -0.0005 ± 0.005 | -0.0165 ± 0.0035 | 0.008 ± 0.016 | 0.0195 ± 0.019 | -0.054 | -0.001 ± 0.0057 | -0.003 ± 0.0071 | -0.061 ± 0.075 | 0.007 ± 0.013 | 0.0095 ± 0.005 | -0.015 ± 0.0099 | -0.0095 ± 0.012 | 0.001 ± 0.0085 | -0.001 ± 0.0071 | 0.01 ± 0.016 | 0.001 ± 0.016 | -0.078 ± 0.045
BE3C:CXCL8/IL-8 | 0.0245 ± 0.053 | 0.0005 ± 0.032 | -0.009 ± 0.014 | 0.0025 ± 0.025 | -0.102 ± 0.049 | 0.029 ± 0.042 | -0.026 ± 0.061 | -0.034 | -0.0095 ± 0.018 | -0.015 ± 0.021 | -0.017 ± 0.076 | 0.011 ± 0.0028 | 0.011 ± 0.0071 | -0.0045 ± 0.005 | 0.0275 ± 0.063 | 0 ± 0.04 | 0.003 ± 0.033 | 0.0305 ± 0.033 | 0.019 ± 0.028 | -0.001 ± 0.048
BE3C:CXCL9/MIG | 0.0135 ± 0.0021 | 0.003 ± 0.014 | 0.0115 ± 0.013 | -0.0015 ± 0.00071 | -0.047 | 0.0135 ± 0.018 | 0.0085 ± 0.0092 | 0.037 | -0.0045 ± 0.0035 | -0.0025 ± 0.0064 | -0.0005 ± 0.0064 | 0.0075 ± 0.028 | 0.0025 ± 0.019 | 0.012 ± 0.011 | -0.001 | 0.0025 ± 0.0035 | 0.007 ± 0.0028 | 0.0165 ± 0.0064 | 0.011 ± 0.0057 | 0.013 ± 0.021
